Source: article PMC8708495, “Population Pharmacokinetics and Pharmacodynamic Target Attainment of Isavuconazole against Aspergillus fumigatus and Aspergillus flavus in Adult Patients with Invasive Fungal Diseases: Should Therapeutic Drug Monitoring for Isavuconazole Be Considered as Mandatory as for the Other Mold-Active …” (Pharmaceutics, 2021)
Like-named read-outs stand apart in the source and are kept apart here.

Experiments:
[1] = Therapeutic drug monitoring of isavuconazole Ctrough and Cpeak in hospitalized patients; format: in vivo, human
Procedure: Isavuconazole treatment was started with a loading dose of 200 mg every 8 h for two days, followed by a maintenance dose of 200 mg daily administered orally or intravenously, at the physician’s discretion. Patients underwent TDM of isavuconazole by assessing plasma Ctrough, which was determined approximately five minutes before the scheduled daily dose, and, whenever possible, also plasma Cpeak, which was determined 2 h after oral administration or 0.5 h after a 1 h intravenous infusion. TDM was assessed firstly after at least 72 h from starting therapy and subsequently reassessed at the discretion of the attending physician.
Blood samples for isavuconazole TDM were immediately delivered to the Institute of Clinical Pharmacology, where they were centrifuged to obtain serum. Isavuconazole serum concentrations were estimated by means of a validated liquid chromatography–tandem mass spectrometry analytic method. Precision and accuracy were assessed by replicate analysis of quality control samples against calibration standards. Intra- and interassay coefficients of variation were always <10%. The LOQ was 0.11 mg/L, and the assay was linear in the range of 0.1–10 mg/L.

[2] = Population pharmacokinetic modeling (NPAG, Pmetrics); format: in vivo, human; conditions: for clearance / Vd / bioavailability: human, serum, 200 mg daily; for clearance / Vd: other: orally or intravenously; for clearance: read-out: CL, total body clearance (converted); for bioavailability: po, read-out: Fos, oral bioavailability
Procedure: Population pharmacokinetics were conducted using the nonparametric adaptive grid approach (NPAG) and the algebraic model solver included in the Pmetrics package (Version 1.5.0, Laboratory of Applied Pharmacokinetics and Bioinformatics, Los Angeles, CA, USA) of R [22]. One- and two-compartment models with first-order absorption and first-order elimination from the central compartment were developed. Maximum a posteriori (MAP)-Bayesian estimates of isavuconazole clearance (CL) and volume of distribution (V) were determined in each patient.
Influence of covariates was assessed by including the biologically plausible clinical covariates into the basic model. Covariate analysis was conducted by means of the Pmetrics function “PMstep” and by linear regression between the median MAP-Bayesian estimates of isavuconazole pharmacokinetic parameters and each tested covariate.
Model comparison was performed by calculating the objective function value (OFV) and the Akaike information criterion (AIC) value. An improvement between the two competitive models was considered statistically significant when the decrease in the OFV was at least 3.84 points. For both the population predictions and the individual predictions, model fit was assessed by evaluating the coefficient of determination of the linear regression of the observed versus predicted concentration plot. Internal model validation was performed by means of a visual predictive check (VPC) with n = 1000 simulations. The normalized prediction distribution errors (NPDE) were also calculated. The VPC plot compares the observed concentrations with model-predicted concentration-time profiles. A model is reliable when ≥95% of the observed concentrations reside within the 95% CI of the model prediction. Assay laboratory error was estimated by means of the interday variability assay data. A first-order polynomial regression was used between drug concentrations and the standard deviation of the observations (C0 = 0.006, C1 = 0.189). Extra process noise was captured with a gamma (G) model (G = 2).

invasive fungal disease = test: Clinical outcome at end of isavuconazole treatment; format: in vivo, human
Procedure: This was a monocentric, retrospective, observational study conducted among patients who were treated with isavuconazole because of IFD between September 2017 and November 2020 at the Azienda Sanitaria Universitaria Friuli Centrale of Udine, Italy.
(§1) The following demographic and clinical data were retrieved from each patient’s medical record: age, gender, weight, height, type and site of infection and microbiological isolate. Patient comedications, along with serum albumin, total bilirubin, ALT, AST and γ-GT concentrations, were recorded at each TDM assessment. Drug-induced liver injury was defined as mild, moderate, severe or fatal according to the EASL Clinical Practice Guidelines for drug-induced liver injury. Drug cotreatments were accurately reviewed by a clinical pharmacologist with the intent of assessing the eventual influence on isavuconazole clearance by CYP3A4 inhibitors and/or inducers. CYP3A4 inhibitors and/or inducers were classified as strong, moderate and mild according to the FDA [19] and to the DrugBank database. Patient outcome at end of therapy was defined as successful (in case of clinical, radiological and/or mycological resolution or improvement of infection) or failed according to [21].

[3] = Safety and liver enzyme monitoring during isavuconazole therapy; format: in vivo
Procedure: as §1

[4] = Mixed-effect linear regression of clinical variables associated with isavuconazole Ctrough; format: in vivo, human
Procedure: Data were presented as median and interquartile range (IQR) for continuous variables or as count and percentage for categorical variables in the descriptive statistics. Univariate and multivariate linear mixed-effect models (with a random effect to account for correlation among repeated measurements within the same subject) were performed to identify clinical independent predictors of isavuconazole Ctrough. All variables that were associated with a p ≤ 0.20 at univariate analysis were subsequently included in the multivariate model. All statistical and graphical analyses were performed with R version 3.4.4 (R Foundation for Statistical Computing, Vienna, Austria). Data were considered statistically significant when p < 0.05.

[5] = cited from earlier work
[6] = design: method as in PMID 26598096; conditions: cited from earlier work
A. fumigatus [7] = tested on: A. fumigatus; design: method as in PMID 25753636; conditions: EUCAST MIC method; associated with a 90% survival rate against disseminated aspergillosis by wild-type and azole-resistant A. fumigatus; cited from earlier work
A. fumigatus [8] = tested on: A. fumigatus; design: method as in earlier work; conditions: EUCAST; cited from earlier work
A. flavus = tested on: A. flavus; design: method as in earlier work; conditions: EUCAST; cited from earlier work
[9] = cited from earlier work; remark: listed apart in the source
[10] = Mean, final population pharmacokinetic model
[11] = Median, final population pharmacokinetic model

SMILES: C[C@@H](c1nc(-c2ccc(C#N)cc2)cs1)[C@](O)(Cn1cncn1)c1cc(F)ccc1F [isavuconazole, Isavuconazole]
- proportion of measured Ctrough <1.0 mg/L ([1]; 2 of 175 Ctrough): 1.1%
- proportion of measured Ctrough >5.13 mg/L ([1]; 50 of 175 Ctrough): 28.6%
- Cpeak ([1]; median of 24 Cpeak, patients n = 50, dose 200 mg): 4.67 mg/L
- Ctrough ([1]; median of 175 Ctrough, patients n = 50, dose 200 mg): 3.68 mg/L
- Ka, first-order transfer rate constant of absorption [2, 10]: 22.64 h⁻¹
- Vp, volume of distribution of the peripheral compartment [2, 10]: 735.24 L
- CL, total body clearance [2, 11]: 1.33 L/h
- Ka, first-order transfer rate constant of absorption [2, 11]: 22.64 h⁻¹
- Vp, volume of distribution of the peripheral compartment [2, 11]: 385.93 L
- clearance [2, 10]: 25.3 mL/min
- Vd ([2]; Mean, final population pharmacokinetic model, read-out: V, volume of distribution of the central compartment): 89.5 L
- clearance [2, 11]: 25.3 mL/min
- Vd ([2]; Median, final population pharmacokinetic model, read-out: V, volume of distribution of the central compartment): 103 L
- Vd ([2]; population pharmacokinetic model, read-out: median volume of distribution): 489 L
- bioavailability [2, 10]: 95%
- bioavailability [2, 11]: 100%
- interindividual variability on CL ([2]; population pharmacokinetic model): 64%
- lack of significant improvement with isavuconazole treatment (invasive fungal disease; 3/47): 6.4%
- Dead for other reasons (invasive fungal disease; 3/47, progression of underlying oncohematological disease): 6.4%
- Treatment failure (invasive fungal disease; clinical outcome at end of treatment, Table 1 (12/47)): 25.5%
- Successful treatment (invasive fungal disease; clinical outcome at end of treatment, patients who completed treatment (n = 47)): 68.1%
- failure (invasive fungal disease; clinical outcome, text (9/47)): 19.2%
- signs and/or symptoms of isavuconazole toxicity during therapy ([3]; 50 patients): No patient experienced signs and/or symptoms of isavuconazole toxicity during therapy
- ALT in intercurrent mild hepatotoxicity ([3]; one patient, resolved spontaneously without isavuconazole withdrawal): up to 261 IU/L
- alanine-aminotransferase (ALT), median (min–max) ([3]; patients on isavuconazole): 21.0 (3.0–261.0) UI/L
- aspartate-aminotransferase (AST), median (min–max) ([3]; patients on isavuconazole): 20.0 (5.0–249.0) UI/L
- gamma-glutamyltransferase (γ-GT), median (min–max) ([3]; patients on isavuconazole): 70.0 (12.0–642.0) IU/L
- Unstandardized β-Coefficient (95% CI) for Ctrough ([4]; Multivariate Analysis, Cotreatment with CYP3A4 inhibitors): 2.154 (3.248–1.060)
- Unstandardized β-Coefficient (95% CI) for Ctrough ([4]; Multivariate Analysis, Dose/kg daily (mg/kg)): 0.402 (0.819−0.016)
- Unstandardized β-Coefficient (95% CI) for Ctrough ([4]; Multivariate Analysis, γ-GT (IU/L)): −0.0004 (0.002−0.002)
- Unstandardized β-Coefficient (95% CI) for Ctrough ([4]; Univariate Analysis, ALT (IU/L)): −0.001 (0.007−0.009)
- Unstandardized β-Coefficient (95% CI) for Ctrough ([4]; Univariate Analysis, AST (IU/L)): −0.008 (-0.002–0.004)
- Unstandardized β-Coefficient (95% CI) for Ctrough ([4]; Univariate Analysis, Albumin (g/L)): 0.034 (0.087−0.019)
- Unstandardized β-Coefficient (95% CI) for Ctrough ([4]; Univariate Analysis, Cotreatment with CYP3A4 inhibitors): 2.39 (3.337–1.443)
- Unstandardized β-Coefficient (95% CI) for Ctrough ([4]; Univariate Analysis, Days from starting therapy (days)): 0.001 (0.007−0.005)
- Unstandardized β-Coefficient (95% CI) for Ctrough ([4]; Univariate Analysis, Dose/kg daily (mg/kg)): 0.815 (1.164–0.466)
- Unstandardized β-Coefficient (95% CI) for Ctrough ([4]; Univariate Analysis, Gender (male vs. female)): 0.099 (6.986−6.788)
- Unstandardized β-Coefficient (95% CI) for Ctrough ([4]; Univariate Analysis, Total bilirubin (mg/dL)): −0.346 (0.034−0.726)
- Unstandardized β-Coefficient (95% CI) for Ctrough ([4]; Univariate Analysis, Weight (kg)): −0.029 (0.006−0.064)
- Unstandardized β-Coefficient (95% CI) for Ctrough ([4]; Univariate Analysis, γ-GT (IU/L)): 0.003 (0.005–0.001)
- reduction in Ctrough ([4]; associated with patient age): 3.7%
- increase in isavuconazole Ctrough ([4]; cotreatment with mild/moderate CYP3A4 inhibitors): more than 2 fold
- dose up to which the pharmacokinetics are linear [5]: up to 600 mg daily
- elimination half-life [5]: 80 to 130 h
- plasma drug accumulation ratio between start and end of therapy ([5]; multiple-dose study, 32 healthy volunteers, IV and oral): 3.8–5.2
- CL ([5]; observed in SOT patients): 4.28 L/h
- interindividual variability on CL ([5]; reported by previous analysis): 43–63%
- CL ([5]; reported in clinical trials): 2.2 to 2.5 L/h
- plasma protein binding [6]: > 98%
- AUC24 h/MIC pharmacodynamic threshold of efficacy (A. fumigatus [7]): > 33.4
- clinical breakpoint (A. fumigatus [8]): 1 mg/L
- clinical breakpoint (A. flavus): 1 mg/L
- cut-off value for toxicity (Ctrough) ([9]; ROC analysis, mild adverse events): 5.13 mg/L
- Median isavuconazole concentration on days when side effects occurred [9]: 6.65 mg/L
- Median isavuconazole concentration when side effects were not present [9]: 4.09 mg/L
- isavuconazole levels associated with hepatic veno-occlusive disease ([9]; in vivo): > 10 mg/L
- linear increase of concentration for each day of treatment ([9]; linear mixed model, 264 Ctrough samples from 19 patients): 0.032 mg/L
